Experimental data as given in patent publication US20190077856A1, “METHOD OF TREATING DISEASES USING KINASE MODULATORS” (Memorial Sloan Kettering Cancer Center, priority 2016, published 2019).

Assays:
[1] = system: TT cells; assay: Surface HLA-A02 and HLA-ABC by flow cytometry (BB7, W6/32) after 72 hours; format: cell-based, human; details: different doses
Protocol: FIG. 15A and FIG. 15B: TT cells were seeded and treated with different doses of AST487 (a RET inhibitor). After 72 hours, cells were harvested and surface HLA-A02 and HLA-ABC were measured through flow cytometry with BB7 and W6/32 staining antibodies, respectively. FIG. 15C: After 24 hours of AST487 incubation, cells were lysed and a western blot was performed. TT cells are derived from a medullary thyroid cancer that has a RET point mutation, as opposed to the TPC1 cells, which are derived from a papillary thyroid cancer and have a RET/PTC1 fusion.
The same analysis was performed in TT cells (a medullary thyroid cancer cell line). TT cells are derived from a medullary thyroid cancer that has a RET point mutation, as opposed to TPC1 cells, which are derived from a papillary thyroid cancer and have a RET/PTC1 fusion. TT cells were seeded and treated with different doses of AST487. After 72 hours, cells were harvested and surface HLA-A02 and HLA-ABC were measured through flow cytometry with BB7 and W6/32 staining antibodies, respectively (FIG. 15A-FIG. 15B). After 24 hours of AST487 incubation, cells were lysed and a western blot was performed (FIG. 15C).

[2] = system: TPC1; assay: qPCR of transcript levels of HLA and antigen processing machinery; format: cell-based, human; details: 24 or 48 hours
Protocol: Using qPCR, transcript levels of HLA and antigen processing machinery were measured after TPC1 cells were treated with AST487 for 24 (FIG. 17A) or 48 hours (FIG. 17B). Upregulation of mRNA levels for HLA and antigen processing machinery were seen.
Real-Time PCR: Total RNA was extracted using Qiagen RNA Easy Plus (Qiagen; #74134) after cells were treated for 48 hrs with indicated inhibitor. RNA was converted into cDNA using gScript™ cDNA SuperMix (Quanta Biosciences Gaithersburg, Md. USA). Real-time assays were conducted using TaqMan real-time probes. (Life Technlogies) for human HLA-A (Hs01058806_gl), B2M (Hs00187842_ml), TAP1 (Hs00388677_ml), TAP2 (Hs00241060_ml), and TBP (Hs00427620_ml) using 50 ng cDNA. For assessment of gene expression using RT-PCR PerfeCTa® FastMix® II (Quanta), reactions were carried out in triplicates using standard thermocycling conditions (2 minutes at 50° C., 10 minutes at 95° C., 40 cycles of 15 seconds at 95° C., and 1 minute at 60° C.). TBP was used as internal control and ΔΔCT method was used for relative mRNA calculations.
Next, using qPCR, transcript levels of HLA and antigen processing machinery were measured after TPC1 cells were treated with AST487 for 24 (FIG. 17, left panel) or 48 hours (FIG. 17, right panel). Upregulation of mRNA levels for HLA and antigen processing machinery were seen.

[3] = system: TPC1; assay: Surface HLA-A02 and HLA-ABC by flow cytometry (BB7, W6/32) after 72 hours; format: cell-based, human; details: different doses
Protocol: (§1) FIG. 14A-FIG. 14C: TPC1 (a papillary thyroid cancer cell line) treated with AST487 increased HLA surface expression. FIG. 14A and FIG. 14B: TPC1 cells were seeded and treated with different doses of AST487 (a RET inhibitor). After 72 hours, cells were harvested and surface HLA-A02 and HLA-ABC were measured through flow cytometry with BB7 and W6/32 staining antibodies, respectively. FIG. 14C: After 24 hours of AST487 incubation, cells were lysed and a western blot was performed to show a decrease in pRET and pERK with AST487 treatment.
(§2) The effect of AST487, a RET inhibitor, on TPC1 (a papillary thyroid cancer cell line) was investigated. TPC1 cells were seeded and treated with different doses of AST487. After 72 hours, cells were harvested and surface HLA-A02 and HLA-ABC were measured through flow cytometry with BB7 and W6/32 staining antibodies, respectively (FIG. 14A-FIG. 14B).

[4] = system: TPC1; assay: Binding of TCR mimic antibody ESK and ADCC (chromium release) with ESK-M; format: cell-based, human
Protocol: FIG. 18A-FIG. 18B: AST487 increased cytolytic activity of TCRm antibody. FIG. 18A: TPC1 cells were treated with different doses of AST487 and binding of ESK (a TCR mimic monoclonal antibody specific for the WT1 RMF peptide/HLA-A02:01 complex) was measured. FIG. 18B: With increase of ESK binding in vitro, the effect on cytolytic activity of ESK was measured with an ADCC assay. TPC1 cells were treated with AST487 or DMSO for 72 hours and then incubated with chromium. Peripheral blood mononuclear cells (PBMCs), chromium labeled target cells, and ESK-M (or an isotype) were mixed and incubated for 5 hours. Varying effector to target ratios were used. Afterwards, chromium levels in the media were measured to determine percent specific lysis.
For FIG. 18A, TPC1 cells were treated with different doses of AST487 and binding of ESK (a TCR mimic monoclonal antibody specific for the WT1 RMF peptide/HLA-A02:01 complex) was measured. For FIG. 18B, with increase of ESK binding in vitro, the effect on cytolytic activity of ESK was measured with an antibody-dependent cell-mediated cytotoxicity (ADCC) assay. TPC1 cells were treated with AST487 or DMSO for 72 hours and then incubated with chromium. PBMCs, chromium labeled target cells, and ESK-M (or an isotype) were mixed and incubated for 5 hours. […] Afterwards, chromium levels in the media were measured to determine percent specific lysis.

[5] = system: TPC1 cells; assay: In vivo treatment of subcutaneous TPC1 tumors, flow cytometry of tumor cells; set-up: species or system NRG mice; details: 7 days of treatment
Protocol: FIG. 19A-FIG. 19B: AST487 treatment in vivo increased surface HLA expression levels. FIG. 19A: NRG mice were injected with TPC1 cells and treated with vehicle (control) or AST487. BB7 and W6/32 binding on TPC1 cells were measured, and are shown in FIG. 19A (normalized to vehicle-treated mice) for vehicle-treated, 10 mg/kg AST487-treated, and 35 mg/kg AST487-treated mice. […] PD-L1 levels were measured as binding to anti-PD-L1 antibody.
NRG mice (Jackson labs NOD-Rag 1 null IL2rgnull, NOD rag gamma) were injected with TPC1 cells subcutaneously, and then treated 4 weeks later with vehicle (phosphate buffered saline) or with AST487 (a RET inhibitor) at a dose of 10 mg/kg or 35 mg/kg. After 7 days of treatment, tumors were harvested, and tumor cells were assessed for binding to BB7 (a monoclonal antibody specific to HLA-A02) and binding to W6/32 (a monoclonal antibody specific to pan HLA-ABC). Tumor cells were GFP-labeled and were distinguished from stroma and normal cells by gating for GFP in flow cytometry. […] One mouse in the vehicle control group was excluded as an outlier with 99% confidence interval as determined by Q test. PD-L1 expression by the tumor was also assessed by measuring binding of anti-PD-L1 antibody.

[6] = system: pRET and pERK; assay: Western blot for pRET and pERK after 24 hours; format: cell-based, human; details: TPC1
Protocol: as §1, §2

cytolytic activity of TCRm antibody (ADCC, ESK-M) ([4]; 72 hours AST487, then PBMCs and ESK-M 5 hours): increased | ESK binding ([4]; different doses): increase
SMILES: CCN1CCN(Cc2ccc(NC(=O)Nc3ccc(Oc4cc(NC)ncn4)cc3)cc2C(F)(F)F)CC1 [AST487, 1-[4-[(4-ethylpiperazin-1-yl)methyl]-3-(trifluoromethyl)phenyl]-3-[4-[6-(methylamino)pyrimidin-4-yl]oxyphenyl]urea]
surface HLA-A [1]: upregulated | mRNA levels for HLA and antigen processing machinery [2]: Upregulation | HLA class I surface expression [3]: increased | HLA-A02 expression (BB7 binding) on the surface of the tumor cells ([5]; 10 mg/kg or 35 mg/kg): increased | pan HLA-ABC expression (W6/32 binding) on the surface of the tumor cells ([5]; 10 mg/kg or 35 mg/kg): increased | expression of PD-L1 by the tumor ([5]; anti-PD-L1 antibody binding): did not change | pRET and pERK [6]: decrease
